Read-outs that look alike come from different tables or passages of the source.
How the values were obtained:
[1] = system: Key Grass and Sedge Weeds as well as Grass Crops; test: Post-emergent Test II herbicidal activity (Table 6); format: in vivo; conditions: post-emergence, 336 h; for pest or weed control at 66 g/ha: application rate 66 g ai/ha; for pest or weed control at 132 g/ha: application rate 132 g ai/ha
In short: (§1)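 Compounds, dissolved in 97:3 acetone/DMSO and diluted into an aqueous carrier containing crop oil concentrate and Triton X-155, are applied over the top of young plants at 187 L/ha. Injury is scored visually at 14 d, 0% meaning no effect and 100% complete kill.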

[2] = system: Key Broadleaf Weed and Crop Species; test: Post-emergent Test II herbicidal activity (Table 5); format: in vivo; conditions: post-emergence, 336 h, post-emergent, 14 days after application; for pest or weed control at 66 g/ha: 66 g ai/ha; for pest or weed control at 132 g/ha: 132 g ai/ha
In short: as §1

[3] = Triticum aestivum, TRZSS (wheat), read-out: Visual Growth Reduction (%) 14 Days After Application, TRZSS
[4] = CYPES: yellow nutsedge (Cyperus esculentus), read-out: Visual Growth Reduction (%) 14 Days After Application, CYPES
[5] = DIGSA: crabgrass (Digitaria sanguinalis), read-out: Visual Growth Reduction (%) 14 Days After Application, DIGSA
[6] = ECHCG: barnyardgrass (Echinochloa crus-galli), read-out: Visual Growth Reduction (%) 14 Days After Application, ECHCG
[7] = ORYSA: rice (Oryza sativa), read-out: Visual Growth Reduction (%) 14 Days After Application, ORYSA
[8] = SETFA: giant foxtail (Setaria faberi), read-out: Visual Growth Reduction (%) 14 Days After Application, SETFA
[9] = SORVU: grain sorghum (Sorghum vulgare), read-out: Visual Growth Reduction (%) 14 Days After Application, SORVU
[10] = ZEAMX: maize, corn (Zea mays), read-out: Visual Growth Reduction (%) 14 Days After Application, ZEAMX
[11] = ABUTH: velvetleaf (Abutilon theophrasti), read-out: Visual Growth Reduction (%) 14 Days After Application ABUTH
[12] = AMARE: redroot pigweed (Amaranthus retroflexus), read-out: Visual Growth Reduction (%) 14 Days After Application AMARE
[13] = BRSNN: oilseed-rape, canola (Brassica napus), read-out: Visual Growth Reduction (%) 14 Days After Application BRSNN
[14] = CHEAL: lambsquarters (Chenopodium album), read-out: Visual Growth Reduction (%) 14 Days After Application CHEAL
[15] = EPHHL: wild poinsettia (Euphorbia heterophylla), read-out: Visual Growth Reduction (%) 14 Days After Application EPHHL
[16] = HELAN: sunflower (Helianthus annuus), read-out: Visual Growth Reduction (%) 14 Days After Application HELAN
[17] = VIOTR: wild pansy (Viola tricolor), read-out: Visual Growth Reduction (%) 14 Days After Application VIOTR

melting point: 121 to 124 °C
SMILES: COC(=O)c1nc(-c2ccc(I)c(F)c2)c(C)c(N)c1Cl [Compound 79, Methyl 4-amino-3-chloro-6-(3-fluoro-4-iodophenyl)-5-methylpicolinate]
pest or weed control at 66 g/ha [1, 3]: 0 to 29% | pest or weed control at 132 g/ha [1, 3]: 30 to 44% | pest or weed control at 66 g/ha [1, 4]: 95 to 100% | pest or weed control at 132 g/ha [1, 4]: 95 to 100% | pest or weed control at 66 g/ha [1, 5]: 60 to 74% | pest or weed control at 132 g/ha [1, 5]: 60 to 74% | pest or weed control at 66 g/ha [1, 6]: 60 to 74% | pest or weed control at 132 g/ha [1, 6]: 60 to 74% | pest or weed control at 66 g/ha [1, 7]: 0 to 29% | pest or weed control at 132 g/ha [1, 7]: 0 to 29% | pest or weed control at 66 g/ha [1, 8]: 75 to 84% | pest or weed control at 132 g/ha [1, 8]: 75 to 84% | pest or weed control at 66 g/ha [1, 9]: 60 to 74% | pest or weed control at 132 g/ha [1, 9]: 75 to 84% | pest or weed control at 66 g/ha [1, 10]: 60 to 74% | pest or weed control at 132 g/ha [1, 10]: 60 to 74% | pest or weed control at 66 g/ha [2, 11]: 85 to 94% | pest or weed control at 132 g/ha [2, 11]: 95 to 100% | pest or weed control at 66 g/ha [2, 12]: 60 to 74% | pest or weed control at 132 g/ha [2, 12]: 75 to 84% | pest or weed control at 66 g/ha [2, 13]: 85 to 94% | pest or weed control at 132 g/ha [2, 13]: 85 to 94% | pest or weed control at 66 g/ha [2, 14]: 95 to 100% | pest or weed control at 132 g/ha [2, 14]: 95 to 100% | pest or weed control at 66 g/ha [2, 15]: 0 to 29% | pest or weed control at 132 g/ha [2, 15]: 0 to 29% | pest or weed control at 66 g/ha [2, 16]: 95 to 100% | pest or weed control at 132 g/ha [2, 16]: 95 to 100% | pest or weed control at 66 g/ha [2, 17]: 0 to 29% | pest or weed control at 132 g/ha [2, 17]: 0 to 29%

Reference: US9113629B2, “4-amino-6-(4-substituted-phenyl)-picolinates and 6-amino-2-(4-substituted-phenyl)-pyrimidine-4-carboxylates and their use as herbicides” (DOW AGROSCIENCES LLC, priority 2013, dated 2015)
